# Measurements from article PMC4626032, “The YHS-Domain of an Adenylyl Cyclase from Mycobacterium phlei Is a Probable Copper-Sensor Module” (PLoS ONE, 2015).
# Tests used:
# MpAC1-182 = system: T1, MpAC1-182; assay: cAMP formation determined by HPLC; type: biochemical, Mycolicibacterium phlei; conditions: 5 mM Mn2+, no Cu2+, pH 8.0, 30 °C; Hill coefficient 1.5 ± 0.2; read-out: SC50 [mM ATP]
# T1 construct: gene MpAC; isolated catalytic domain (CHD), residues 1-182 of 233, YHS domain removed; N-terminal MRGSH6GS tag kept, C-terminal extra Ala; codon-optimized gene in E. coli BL21(DE3)[pRep4]; class III ACs act as head-to-tail dimers
# Excerpt: cAMP formation determined by HPLC on MpAC1-182
# MpAC1-233 = system: T2, MpAC1-233; assay: cAMP formation determined by HPLC; type: biochemical, Mycolicibacterium phlei; conditions: 5 mM Mn2+, no Cu2+, pH 8.0, 30 °C; Hill coefficient 0.9 ± 0.1; read-out: SC50 [mM ATP]
# T2 construct: gene MpAC; full length, residues 1-233 (CHD plus C-terminal YHS domain); His-TEV tag removed, N-terminal GS dipeptide remains; codon-optimized gene in E. coli BL21(DE3)[pRep4]
# Excerpt: cAMP formation determined by HPLC on MpAC1-233
# [1] = target: full-length Mycobacterium phlei adenylyl cyclase, untagged MpAC_(1-233) (Mycobacterium phlei); assay: protein dependence of adenylyl cyclase activity; dimer to monomers; dissociation constant calculated from the protein dependance of the AC activity; data not shown
Km (MpAC1-182),Km (MpAC1-233),Kd [1],Compound
0.9 ± 0.22 mM,2.11 ± 0.54 mM,,Nc1ncnc2c1ncn2[C@@H]1O[C@H](COP(=O)(O)OP(=O)(O)OP(=O)(O)O)[C@@H](O)[C@H]1O [ATP]
,,160 nM,"full-length Mycobacterium phlei adenylyl cyclase, untagged MpAC_(1-233) (enzyme)"
